Series [1] relates to NA (H7N9). Type of series: biochemical. The settings on record: 200 µM.
Series [2] has as its system MCF7 cells.
The target in series [3] is T1, NA (H5N1) (Influenza A virus, UniProt K0C216). Description: biochemical. The settings on record: for Inhibition rate (%) NA (H5N1): 200 µM; for inhibition at 200 µM: read-out: Inhibition rate (%) NA (H5N1).
In series [4] the target is NA (H1N1,09) (Influenza A virus, UniProt C3W5S3). Description: biochemical. As to conditions: for Inhibition rate (%) NA(H1N1,09) / inhibition at 200 µM: 200 μM of each compound, n = 3, means ± standard deviation; for IC50: in vitro NA inhibition assay (n = 3); for inhibition at 200 µM: read-out: Inhibition rate (%) NA(H1N1,09).
Series [5] concerns influenza A H1N1 (A/WSN/33). The settings on record: cellular assay; cited from earlier work.
Series [6] can be described thus: in vitro. As to conditions: dog.
Series [7] relates to H5N2 (A/Duck/Pennsylvania/84). Description: microbe, parasite or virus in culture. Type of series: cell-based. The settings on record: unidentified influenza virus, H5N2, MDCK.
Series [8] has as its system Influenza B (B/Lee/40). Description: microbe, parasite or virus in culture. The format is cell-based.
Series [9] is described as follows: in vitro. As to conditions: human.
Series [10] concerns the target T1, NA (H5N1). The format is biochemical, Influenza A virus A/Hubei/1/2011(H5N1).
Series [11] concerns MDCK cells (Madin-Darby Canine Kidney cells).

Read-outs that look alike come from different tables or passages of the source.

`C/C(=C/CC[C@@H](C)[C@H]1CC[C@@]2(C)C3=CC[C@H]4C(C)(C)C(=O)CC[C@]4(C)C3=CC[C@]12C)C(=O)O` [Compound 4, Ganoderic acid Sz]: the “Inhibition rate (%) NA(H7N9)” value in series [1] worked out at 17.8 ± 4.0%. This compound also displayed a CC50 in series [2] of 50.6 ± 0.1 µM. Moreover, in [3], the “Inhibition rate (%) NA (H5N1)” value was 0.0%. Besides, in series [4], the “Inhibition rate (%) NA(H1N1,09)” value is recorded as 60.1 ± 4.8% and the IC50 was determined as 101 ± 35.9 µM.

With `C/C(=C\[C@@H](O)C[C@@H](C)[C@H]1CC(=O)[C@@]2(C)C3=C(C(=O)C[C@]12C)[C@@]1(C)CC[C@H](O)C(C)(C)[C@@H]1CC3=O)C(=O)O` [Compound 22, Ganoderic acid Zeta], the “Inhibition rate (%) NA(H7N9)” value in [1] came to 17.7 ± 2.4%. Moreover, in [2], the CC50 was over 200 µM. The “Inhibition rate (%) NA (H5N1)” value in series [3] turned out to be 0.0%. In addition, the “Inhibition rate (%) NA(H1N1,09)” value in series [4] was 35.9 ± 5.3%.

Consider `C/C(=C\C(=O)CC(C)C(=O)O)C1CC(O)C2(C)C3=C(C(=O)CC12C)C1(C)CCC(O)C(C)(C)C1CC3O` (centres unmarked) [Compound 16, Ganoderenic acid C], for which the “Inhibition rate (%) NA(H7N9)” value in [1] is 27.2 ± 0.5%. Further, the CC50 in series [2] is over 200 µM. The “Inhibition rate (%) NA (H5N1)” value in series [3] came to 30.6 ± 4.5%. Moreover, the “Inhibition rate (%) NA(H1N1,09)” value in series [4] worked out at 27.9 ± 0.3%.

In the case of Ganoderenic acid D [Compound 17], the “Inhibition rate (%) NA(H7N9)” value in series [1] worked out at 35.9 ± 2.8%. The CC50 in series [2] was over 200 µM. Besides, in series [3], the midpoint of inhibition, the IC50, lay at 123 ± 22.5 µM and the “Inhibition rate (%) NA (H5N1)” value was 74.2 ± 2.2%. Besides, in series [4], the “Inhibition rate (%) NA(H1N1,09)” value was found to be 50.4 ± 3.0%.

Consider `CC(=CCC[C@@H](C)[C@H]1CC[C@@]2(C)C3=CC[C@H]4C(C)(C)[C@@H](O)CC[C@]4(C)C3=CC[C@]12C)CO` [ganodermadiol], for which the IC50 in series [5] was over 220 µM.

For `C/C(C=O)=C\CC[C@@H](C)[C@H]1CC[C@@]2(C)C3=CC[C@H]4C(C)(C)[C@@H](O)CC[C@]4(C)C3=CC[C@]12C` [Compound 30, Lucialdehyde A], the “Inhibition rate (%) NA(H7N9)” value in [1] is recorded as 24.5 ± 1.6%. The compound also gave a CC50 in series [2] of 34.7 ± 5.5 µM. In addition, in series [3], inhibition was half-maximal at 164 ± 18 µM (IC50) and the “Inhibition rate (%) NA (H5N1)” value is listed as 67.1 ± 5.7%. Besides, the “Inhibition rate (%) NA(H1N1,09)” value in series [4] is reported as 57.6 ± 1.7%.

With `CC(CC(=O)C[C@@](C)(O)C1=C[C@H](O)[C@]2(C)[C@]1(C)C(=O)C=C1[C@@]3(C)CCC(=O)C(C)(C)[C@@H]3C[C@H]3O[C@@]132)C(=O)O` (some centres unmarked) [applanoxidic acid G], the IC50 in series [5] was 190 µM.

Consider `C/C(=C\CC[C@@H](C)[C@H]1C[C@H](O)[C@@]2(C)C3=CC[C@H]4C(C)(C)C(=O)CC[C@]4(C)C3=CC[C@]12C)C(=O)O` [Compound 2, Ganoderic acid TR], for which the “Inhibition rate (%) NA(H7N9)” value in series [1] was 24.0 ± 1.8%. Moreover, the values for the CC50 in series [6] and in series [9] were 299 µM and 91.6 ± 3.4 µM, respectively. Besides, the IC50 was 324 µM in [7] and 166 µM in series [8] (Influenza B virus, MDCK). In [3], the inhibition at 200 µM was 96.5 ± 0.3%.

`C/C(=C\CC[C@@H](C)[C@H]1CC[C@@]2(C)C3=C(CC[C@]12C)[C@@]1(C)CCC(=O)C(C)(C)[C@@H]1CC3=O)C(=O)O` [Compound 20, Ganoderic acid DM]: in [1], the “Inhibition rate (%) NA(H7N9)” value stood at 29.4 ± 3.8%. Besides, the inhibition at 200 µM in series [3] came to 55.2 ± 0.7%; in [4] it was 50.4 ± 1.5%. For the same compound, the CC50 in series [9] was over 200 µM.

Take `C/C(=C\CC[C@@H](C)[C@H]1CC[C@@]2(C)C3=C(CC[C@]12C)[C@@]1(C)CC[C@H](O)C(C)(C)[C@@H]1CC3=O)CO` [lucidadiol]: in series [5], the IC50 is 220 µM.

Take `CC(=O)O[C@H]1C[C@H]([C@H](C)CC/C=C(\C)C(=O)O)[C@@]2(C)CC=C3C(=CC[C@H]4C(C)(C)[C@@H](O)CC[C@]34C)[C@]12C` [Compound 3, Ganoderic acid T-N]: the “Inhibition rate (%) NA(H7N9)” value in [1] was 25.6 ± 1.6%. In [2], this compound gave a CC50 of 24.4 ± 2.4 µM. In [3], it took 2.7 ± 0.4 µM to reach half-maximal inhibition (IC50) and the “Inhibition rate (%) NA (H5N1)” value was 91.1 ± 0.8%. Also, in series [4], the “Inhibition rate (%) NA(H1N1,09)” value is 72.0 ± 5.5% and the midpoint of inhibition, the IC50, lay at 42 ± 13.5 µM.

In the case of `CC(=O)O[C@H]1C[C@H]([C@H](C)CC/C=C(\C)C(=O)O)[C@@]2(C)CC=C3C(=CC[C@H]4C(C)(C)C(=O)CC[C@]34C)[C@]12C` [Compound 1, Ganoderic acid T-Q], the “Inhibition rate (%) NA(H7N9)” value in [1] turned out to be 27.4 ± 1.2%. Besides, in [10], the “Kiu (ESI dissociation constant)” value is recorded as 17.39, the “higher affinity to free NA than to the NA-substrate complex” value amounted to 2.5 fold and the mode of inhibition entry is given as “mixed inhibition mode”. The compound further registered a CC50 in series [2] of 28.2 ± 0.8 µM. For the same compound, in [3], the IC50 was 1.2 ± 1 µM and the “Inhibition rate (%) NA (H5N1)” value turned out to be 94.4 ± 0.4%. The same compound gave a CC50 in [11] of 41.1 µM. In series [4], the “Inhibition rate (%) NA(H1N1,09)” value amounted to 81.7 ± 1.7% and the IC50 came to 5.6 ± 1.9 µM. In [8] (read-out: IC50), the IC50 is 190 µM.

As for `C/C(C=O)=C\CC[C@@H](C)[C@H]1CC[C@@]2(C)C3=C(CC[C@]12C)[C@@]1(C)CCC(=O)C(C)(C)[C@@H]1CC3=O` [Compound 31, Lucialdehyde B], in series [1], the “Inhibition rate (%) NA(H7N9)” value came out at 30.4 ± 3.5%. In addition, the inhibition at 200 µM in [3] turned out to be 86.7 ± 0.8%; in [4], 51.4 ± 2.5%. In [9], the CC50 worked out at 7.1 ± 0.3 µM.

For `C[C@H](CC(=O)C[C@@H](C)[C@H]1C[C@H](O)[C@@]2(C)C3=C(C(=O)C[C@]12C)[C@@]1(C)CCC(=O)C(C)(C)[C@@H]1C[C@@H]3O)C(=O)O` [Compound 7, Ganoderic acid A], in series [1], the “Inhibition rate (%) NA(H7N9)” value is given as 6.3 ± 2.2%. The values for the inhibition at 200 µM in series [3] and in series [4] were 31.4 ± 7.3% and 5 ± 5.4%, respectively. Besides, in series [9], the CC50 is over 200 µM.

On to `C[C@H](CC(=O)C[C@@H](C)[C@H]1CC(=O)[C@@]2(C)C3=C(C(=O)C[C@]12C)[C@@]1(C)CCC(=O)C(C)(C)[C@@H]1C[C@@H]3O)C(=O)O` [Compound 19, Ganoderic acid C1], for which, in series [1], the “Inhibition rate (%) NA(H7N9)” value came out at 26.2 ± 4.1%. The values for the inhibition at 200 µM in series [3] and in series [4] were 43.3 ± 6.1% and 21.1 ± 4.1%, respectively. The compound further came in with a CC50 in series [9] of over 200 µM.
